Reference: PubChem BioAssay (NCI)
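Here, GI50 denotes the concentration required for 50% inhibition of growth. TGI: total growth inhibition.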

Assays:
Assay in all cases: NCI tumour cell line growth inhibition, 384-well format; in the data active = GI50 below about 0.43 µM; inactive = the rest
[1] = test system: MDA-MB-435 melanoma
[2] = test system: 786-0 renal
[3] = test system: M14 melanoma
[4] = test system: NCI-H226 lung
[5] = test system: UO-31 renal
[6] = test system: HOP-62 NSCLC
[7] = test system: MDA-MB-231 breast
[8] = test system: ACHN renal
[9] = test system: PC-3 prostate
[10] = test system: CAKI-1 renal
[11] = test system: KM12 colon
[12] = test system: SR leukemia
[13] = test system: UACC-257 melanoma

O=C(c1cc(Cc2n[nH]c(=O)c3ccccc23)ccc1F)N1CCN(C(=O)C2CC2)CC1
inactive: GI50 [1] > 100 µM | GI50 [2] > 100 µM | GI50 [3] > 91.5 µM | GI50 [4] 34.5 µM | GI50 [5] > 92.7 µM | GI50 [6] 4.92 µM | GI50 [7] > 61.1 µM | GI50 [8] > 81.8 µM | GI50 [9] > 100 µM | GI50 [10] 52.4 µM | GI50 [11] > 100 µM | GI50 [12] 1.37 µM | GI50 [13] > 100 µM
> 100 µM: TGI [1] | TGI [2] | TGI [3] | TGI [4] | TGI [5] | TGI [7] | TGI [8] | TGI [9] | TGI [10] | TGI [11] | TGI [13]
> 75.5 µM: TGI [6]
3.38 µM: TGI [12]
